Laboratory results published in DBAASP.
≈ marks a conversion by molar mass, not a printed value.

Key:
Assay in all cases: ≥ marks a high value that may be exact or a test limit, other limits are often not marked, values filed in µg/mL are converted to µM
[1] = system: Escherichia coli DH5alpha
[2] = system: Micrococcus luteus ATCC 4698
[3] = system: Staphylococcus aureus ATCC 6538
[4] = system: Staphylococcus epidermidis ATCC 12228
Bacillus anthracis = system: Bacillus anthracis
Bacillus cereus = system: Bacillus cereus
Escherichia coli = system: Escherichia coli
Staphylococcus aureus = system: Staphylococcus aureus
[5] = system: Enterococcus faecalis ATCC 29212
[6] = system: Pseudomonas aeruginosa ATCC 15442
[7] = system: Staphylococcus aureus ATCC 29213
[8] = system: Candida albicans ATCC 90028
[9] = system: Pseudomonas aeruginosa ATCC 9027
[10] = system: Staphylococcus aureus USA 100
[11] = system: Staphylococcus aureus USA 300
[12] = system: Streptococcus mutans UA159
[13] = system: Bacillus cereus ATCC 11778
[14] = system: Escherichia coli ATCC 35218
[15] = system: Staphylococcus aureus ATCC 25923
Bacillus subtilis = system: Bacillus subtilis
[16] = system: Klebsiella pneumoniae ATCC 13883
[17] = system: Pseudomonas aeruginosa ATCC 27853
[18] = system: Salmonella enterica subsp. enterica serovar Typhimurium ATCC 14028
[19] = system: Streptococcus pyogenes ATCC 19615

`CC(C)C[C@H](NC(=O)[C@H](CC(C)C)NC(=O)[C@H](CCCCN)NC(=O)[C@H](CO)NC(=O)[C@H](CC(C)C)NC(=O)[C@H](C)NC(=O)[C@H](CCCCN)NC(=O)[C@H](Cc1ccccc1)NC(=O)[C@H](C)NC(=O)[C@H](C)NC(=O)CNC(=O)[C@H](C)NC(=O)[C@@H](N)Cc1ccccc1)C(=O)O` [FAGAAFKALSKLL] gave an MIC [1] of at least 299 µM, an MIC [2] of at least 112 µM and an MIC [3] of 209 µM (≈ 280 µg/mL). For the same compound, the MIC [4] was over 299 µM.

For `CC(C)C[C@H](NC(=O)CNC(=O)[C@H](Cc1ccccc1)NC(=O)[C@H](CC(C)C)NC(=O)[C@@H](N)Cc1ccccc1)C(=O)N[C@@H](C)C(=O)N[C@@H](CO)C(=O)N[C@@H](CCCCN)C(=O)N[C@H](C(=O)N[C@@H](Cc1ccccc1)C(=O)N1CCC[C@H]1C(=O)N[C@@H](C)C(=O)N[C@H](C(=O)N[C@@H](Cc1ccc(O)cc1)C(=O)N[C@@H](CS)C(=O)N[C@@H](CCCCN)C(=O)N[C@H](C(=O)N[C@H](C(=O)N[C@@H](CCCN=C(N)N)C(=O)N[C@@H](CCCCN)C(=O)O)[C@@H](C)O)C(C)C)C(C)C)C(C)C` [FLFGLASKVFPAVYCKVTRK], the MIC (Bacillus anthracis) was at least 56.3 µM, the MIC (Bacillus cereus) was at least 113 µM and the MIC (Escherichia coli) was 28.1 µM (≈ 64 µg/mL). The MIC (Staphylococcus aureus) was 113 µM (≈ 256 µg/mL).

In the case of `CC[C@H](C)[C@H](NC(=O)[C@H](CC(C)C)NC(=O)[C@H](C)NC(=O)[C@@H]1CCCN1C(=O)[C@H](Cc1ccccc1)NC(=O)[C@@H](NC(=O)[C@H](CCCCN)NC(=O)[C@H](CO)NC(=O)[C@H](C)NC(=O)[C@@H](NC(=O)[C@H](CCCN=C(N)N)NC(=O)[C@H](Cc1ccccc1)NC(=O)[C@H](CC(C)C)NC(=O)[C@@H](N)Cc1ccccc1)C(C)C)C(C)C)C(=O)NCC(=O)N[C@@H](CCCCN)C(=O)N[C@@H](Cc1ccccc1)C(=O)N[C@@H](CCCCN)C(=O)N[C@@H](CCCCN)C(=O)N[C@@H](CCCCN)C(=O)O` [FLFRVASKVFPALIGKFKKK], the MIC (Bacillus anthracis) is reported as 6.88 µM (≈ 16 µg/mL), the MIC (Bacillus cereus) is reported as 6.88 µM (≈ 16 µg/mL) and the MIC (Escherichia coli) is reported as 27.5 µM (≈ 64 µg/mL). It also gave an MIC (Staphylococcus aureus) of 6.88 µM (≈ 16 µg/mL).

`CC[C@H](C)[C@H](NC(=O)[C@@H](NC(=O)[C@H](C)NC(=O)[C@@H]1CCCN1C(=O)[C@H](Cc1ccccc1)NC(=O)[C@@H](NC(=O)[C@H](CCCCN)NC(=O)[C@H](CO)NC(=O)[C@H](C)NC(=O)[C@@H](NC(=O)[C@H](CCCN=C(N)N)NC(=O)[C@H](Cc1ccccc1)NC(=O)[C@H](CC(C)C)NC(=O)[C@H](C)NC(=O)CNC(=O)[C@@H](N)CC(C)C)C(C)C)C(C)C)C(C)C)C(=O)N[C@@H](CO)C(=O)N[C@@H](CCSC)C(=O)N[C@H](C(=O)N[C@@H](CCCCN)C(=O)O)C(C)C` [LGALFRVASKVFPAVISMVK] was tested, and the MIC (Bacillus anthracis) was 30 µM (≈ 64 µg/mL), the MIC (Bacillus cereus) was 30 µM (≈ 64 µg/mL) and the MIC (Escherichia coli) was 120 µM (≈ 256 µg/mL). For the same compound, the MIC (Staphylococcus aureus) was 30 µM (≈ 64 µg/mL).

In the case of `CC[C@H](C)[C@H](NC(=O)[C@H](C)NC(=O)[C@@H](N)C(C)C)C(=O)N[C@@H](C)C(=O)N[C@@H](CC(C)C)C(=O)N[C@@H](CCCCN)C(=O)N[C@@H](C)C(=O)N[C@@H](C)C(=O)N[C@@H](C)C(=O)N[C@@H](Cc1ccc(O)cc1)C(=O)N[C@@H](Cc1cnc[nH]1)C(=O)N[C@H](C(=O)N[C@@H](Cc1cnc[nH]1)C(=O)N[C@@H](CCCCN)C(=O)N[C@@H](CCC(=O)O)C(=O)O)[C@@H](C)O` [VAIALKAAAYHTHKE], the MIC [5] is reported as 78.9 µM (≈ 128 µg/mL), the MIC [6] is reported as at least 78.9 µM and the MIC [7] is reported as 39.4 µM (≈ 64 µg/mL).

`NCCCC[C@H](NC(=O)[C@H](Cc1cnc[nH]1)NC(=O)CN)C(=O)O` [GHK] showed an MIC [8] of at least 100 µM, an MIC [9] of over 100 µM and an MIC [10] of at least 100 µM. It also gave an MIC [11] of at least 100 µM.

In the case of `C[C@@H](O)[C@H](N)C(=O)N[C@@H](CCCN=C(N)N)C(=O)N[C@H](C(=O)N[C@@H](CCCN=C(N)N)C(N)=O)[C@@H](C)O` [TRTR], the MIC [10] is reported as at least 100 µM.

Compound `CC[C@H](C)[C@H](NC(=O)[C@H](CCCN=C(N)N)NC(=O)[C@H](C)NC(=O)[C@H](Cc1ccccc1)NC(=O)[C@H](Cc1ccccc1)NC(=O)[C@H](CCCCN)NC(=O)[C@H](CCCN=C(N)N)NC(=O)[C@H](CC(C)C)NC(=O)[C@@H](NC(=O)[C@H](CCCCN)NC(=O)[C@@H]1CCCN1C(=O)[C@H](CC(C)C)NC(=O)[C@@H](N)Cc1ccccc1)[C@@H](C)O)C(=O)N[C@@H](CCCN=C(N)N)C(=O)NCC(=O)NCC(=O)N[C@@H](CCCN=C(N)N)C(=O)N[C@@H](C)C(=O)N[C@@H](C)C(=O)N[C@H](C(=O)N[C@@H](CC(C)C)C(=O)N[C@@H](CC(N)=O)C(=O)N[C@@H](C)C(=O)O)C(C)C` [FLPKTLRKFFARIRGGRAAVLNA] has an MIC [12] of 8.48 µM (≈ 22.1 µg/mL).

Compound `CC(C)C[C@H](NC(=O)[C@H](CC(C)C)NC(=O)[C@@H](NC(=O)[C@@H](N)CCCCN)[C@@H](C)O)C(=O)N[C@@H](CCCCN)C(=O)N[C@@H](CCCCN)C(=O)N[C@H](C(=O)N[C@@H](CC(C)C)C(=O)N[C@@H](CCCCN)C(=O)N[C@@H](C)C(=O)N[C@@H](C)C(=O)N[C@@H](C)C(N)=O)C(C)C` [KTLLKKVLKAAA] has an MIC [13] of at least 50 µM, an MIC [14] of at least 50 µM and an MIC [9] of over 50 µM. For the same compound, the MIC [15] was over 50 µM.

`C[C@H](N)C(=O)N[C@@H](CCCN=C(N)N)C(=O)N[C@@H](C)C(=O)N[C@@H](CCCN=C(N)N)C(N)=O` [ARAR] was tested, and the MIC [10] was at least 100 µM.

Compound `CC(C)C[C@H](NC(=O)[C@H](CO)NC(=O)[C@H](CC(C)C)NC(=O)[C@H](Cc1ccccc1)NC(=O)[C@@H](NC(=O)[C@H](CO)NC(=O)[C@H](CO)NC(=O)[C@H](CCCN=C(N)N)NC(=O)[C@H](Cc1ccccc1)NC(=O)[C@@H](NC(=O)[C@@H](NC(=O)[C@@H]1CCCN1C(=O)[C@H](CO)NC(=O)[C@H](C)N)[C@@H](C)O)C(C)C)C(C)C)C(=O)N[C@@H](Cc1ccccc1)C(=O)N[C@H](C(=O)N[C@H](C(=O)N[C@@H](C)C(=O)N[C@@H](CCCCN)C(=O)N[C@@H](CCCCN)C(=O)O)C(C)C)C(C)C` [ASPTVFRSSVFLSLFVVAKK] has an MIC (Bacillus anthracis) of at least 117 µM, an MIC (Bacillus cereus) of at least 117 µM and an MIC (Escherichia coli) of over 117 µM. The MIC (Staphylococcus aureus) was over 117 µM.

`CC(C)C[C@H](NC(=O)[C@H](CCCN=C(N)N)NC(=O)[C@H](CO)NC(=O)[C@H](Cc1cnc[nH]1)NC(=O)[C@@H](N)CCCN=C(N)N)C(=O)N[C@@H](CCC(N)=O)C(=O)N[C@@H](CCCN=C(N)N)C(=O)N[C@@H](CCC(=O)O)C(=O)N1CCC[C@H]1C(=O)N[C@@H](CCC(N)=O)C(=O)N[C@H](C(=O)N[C@@H](CCC(N)=O)C(=O)N[C@@H](Cc1c[nH]c2ccccc12)C(=O)N[C@@H](CC(C)C)C(=O)N[C@@H](CCC(=O)O)C(=O)N[C@@H](CCC(N)=O)C(=O)N[C@@H](CCC(N)=O)C(=O)N[C@H](C(=O)N[C@@H](C)C(=O)N[C@@H](CCCCN)C(=O)N[C@@H](CCCN=C(N)N)C(=O)N[C@@H](CCCN=C(N)N)C(=O)N[C@H](C(=O)N[C@@H](CCCCN)C(=O)N[C@@H](CCCN=C(N)N)C(=O)O)[C@@H](C)O)C(C)C)C(C)C` [RHSRLQREPQVQWLEQQVAKRRTKR] gave an MIC (Bacillus subtilis) of at least 100 µM, an MIC [5] of over 100 µM and an MIC (Escherichia coli) of over 100 µM. For the same compound, the MIC [16] was at least 100 µM, the MIC [17] was over 100 µM and the MIC [18] was over 100 µM. It also gave an MIC [15] of over 100 µM and an MIC [19] of at least 100 µM.
